Test results: ChEMBL document CHEMBL1201862, “PubChem BioAssay data set” (2004)
The source made the active and inactive calls.

Legend:
CHO = CHO cell viability loss, potency – luminescence, cytotoxicity control for TLR9-MyD88 binding inhibitor project, dose response (AID 588339); type: functional, cell-based, hamster; details: Cricetulus griseus;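 also: CHO cells stably coexpressing TLR9 and MyD88 fusions from primary screen; compound exposure lasted 48 hours before viability readout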
Beta Lactamase = Beta Lactamase (Pseudomonas aeruginosa, UniProt Q932Y6); experiment: BLA reporter interference, concentration series – BLA reporter cells, FRET fluorescence, artefact control for TLR9-MyD88 binding inhibitor project, dose response (AID 588341); type: cell-based;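 also: cell based assay in CHO-K1 cells stably expressing beta-lactamase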
Beta Lactamase, sequence (Q932Y6 whole entry): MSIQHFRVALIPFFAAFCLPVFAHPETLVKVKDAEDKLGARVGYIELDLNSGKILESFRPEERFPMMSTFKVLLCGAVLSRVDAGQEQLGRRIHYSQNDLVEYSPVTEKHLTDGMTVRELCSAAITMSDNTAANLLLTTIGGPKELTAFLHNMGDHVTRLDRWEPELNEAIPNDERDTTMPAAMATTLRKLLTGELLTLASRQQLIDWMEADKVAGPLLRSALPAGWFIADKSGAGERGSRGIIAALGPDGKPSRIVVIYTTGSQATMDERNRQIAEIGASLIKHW

[1] = Luminescence Cell-Based Dose Response HTS to Identify Activators of Luciferase Translation or Activity in H4 […] Cells. [Related pubchem assays: 1829 (Project Summary), 1814 (Primary HTS)]; type: functional
H4 = experiment: Luminescence Cell-Based Dose Response HTS to Identify Activators of 5'UTR Stem-Loop Driven Prion Protein mRNA Translation in H4 Neuroglioblastoma Cells. [Related pubchem assays: 1829 (Project Summary), 1814 (Primary HTS)]; type: functional; details: Homo sapiens
Escherichia coli = experiment: microbe, parasite or virus in culture
[2] = NIH-3T3 fibroblast cytotoxicity, dose response, cytotoxicity control, cell-based, fluorescence, Alamar Blue, secondary assay (AID 2327); type: functional;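 also: NIH-3T3 mouse fibroblasts cultured with fluconazole at 8 µg/mL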
[3] = fluconazole-exposed Candida albicans growth modulators – fluorescence, retest, confirmation (AID 2467); type: functional, cell-based
[4] = biological target: Serine/threonine-protein phosphatase (Candida dubliniensis (strain CD36 / CBS 7987 / NCPF 3949 / NRRLY-17841) (Yeast), UniProt B9W6M3); experiment: blockers of CaCl2-induced CDRE-lacZ signaling – S. cerevisiae, luminescence, secondary, dose response (AID 2388); type: functional, cell-based;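 also: yeast reporter cells carrying a calcineurin-responsive lacZ construct stimulated with calcium chloride; luminescent beta-galactosidase reporter signal in whole cells rather than isolated phosphatase activity; potency for inhibition where a drop in reporter signal means calcineurin blockade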
Serine/threonine-protein phosphatase, sequence (B9W6M3 whole entry): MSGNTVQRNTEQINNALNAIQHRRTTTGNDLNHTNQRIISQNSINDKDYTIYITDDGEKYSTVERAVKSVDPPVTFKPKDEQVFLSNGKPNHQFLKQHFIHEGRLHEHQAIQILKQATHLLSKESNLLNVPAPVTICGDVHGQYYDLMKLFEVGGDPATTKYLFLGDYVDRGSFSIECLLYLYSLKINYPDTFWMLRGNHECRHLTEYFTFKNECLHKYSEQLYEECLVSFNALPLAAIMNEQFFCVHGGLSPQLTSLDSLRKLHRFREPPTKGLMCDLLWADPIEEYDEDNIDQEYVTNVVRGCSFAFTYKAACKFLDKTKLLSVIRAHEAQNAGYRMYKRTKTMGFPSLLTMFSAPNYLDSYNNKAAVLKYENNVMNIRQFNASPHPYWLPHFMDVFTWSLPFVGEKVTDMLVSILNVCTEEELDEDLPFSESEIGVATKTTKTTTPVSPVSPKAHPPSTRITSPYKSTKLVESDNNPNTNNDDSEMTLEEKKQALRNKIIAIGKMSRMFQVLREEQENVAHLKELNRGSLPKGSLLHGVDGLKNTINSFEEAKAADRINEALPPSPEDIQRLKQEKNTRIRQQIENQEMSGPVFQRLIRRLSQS

[5] = biological target: ATP-dependent molecular chaperone HSP82 (Candida albicans (strain WO-1) (Yeast), UniProt C4YTQ8); experiment: steroid-induced GRE reporter decrease in yeast – S. cerevisiae, luminescence, Hsp90 inhibitor project, dose response (AID 2400); type: functional, cell-based;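 also: beta-galactosidase luminescence from glucocorticoid response element reporter as proxy for Hsp90 function; inhibitor potency where signal loss means Hsp90 inhibition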
ATP-dependent molecular chaperone HSP82, sequence (C4YTQ8 whole entry): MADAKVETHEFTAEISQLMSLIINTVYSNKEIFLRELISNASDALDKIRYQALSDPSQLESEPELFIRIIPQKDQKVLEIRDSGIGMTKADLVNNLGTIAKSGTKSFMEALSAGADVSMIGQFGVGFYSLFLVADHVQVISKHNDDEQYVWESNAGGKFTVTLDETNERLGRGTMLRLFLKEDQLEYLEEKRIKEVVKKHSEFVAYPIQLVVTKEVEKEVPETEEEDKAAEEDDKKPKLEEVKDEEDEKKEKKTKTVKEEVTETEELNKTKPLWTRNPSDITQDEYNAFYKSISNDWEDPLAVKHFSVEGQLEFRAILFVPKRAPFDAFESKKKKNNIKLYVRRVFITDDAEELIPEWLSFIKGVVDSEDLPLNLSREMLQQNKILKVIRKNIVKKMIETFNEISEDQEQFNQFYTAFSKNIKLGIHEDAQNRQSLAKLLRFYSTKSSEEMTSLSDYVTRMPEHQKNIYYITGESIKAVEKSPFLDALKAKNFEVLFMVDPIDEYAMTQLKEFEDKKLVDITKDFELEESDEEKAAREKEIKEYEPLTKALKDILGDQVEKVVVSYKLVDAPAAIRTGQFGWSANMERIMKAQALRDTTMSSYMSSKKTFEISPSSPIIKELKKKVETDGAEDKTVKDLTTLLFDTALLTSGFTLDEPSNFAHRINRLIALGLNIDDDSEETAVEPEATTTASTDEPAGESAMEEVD

[6] = viability of uninfected HEp-2 cells – cell-based, HTS, cytotoxicity control for RSV inhibitor project, dose response (AID 2410); type: functional; details: human respiratory syncytial virus
Ion channel NompC = Ion channel NompC (Danio rerio, UniProt Q7T1G6); experiment: Dose response cell-based high-throughput screening assay for agonists of the transient receptor potential channel N1 (TRPN1). [Related pubchem assays (depositor defined):AID1424, AID1448]; type: functional
Ion channel NompC, sequence (Q7T1G6 whole entry): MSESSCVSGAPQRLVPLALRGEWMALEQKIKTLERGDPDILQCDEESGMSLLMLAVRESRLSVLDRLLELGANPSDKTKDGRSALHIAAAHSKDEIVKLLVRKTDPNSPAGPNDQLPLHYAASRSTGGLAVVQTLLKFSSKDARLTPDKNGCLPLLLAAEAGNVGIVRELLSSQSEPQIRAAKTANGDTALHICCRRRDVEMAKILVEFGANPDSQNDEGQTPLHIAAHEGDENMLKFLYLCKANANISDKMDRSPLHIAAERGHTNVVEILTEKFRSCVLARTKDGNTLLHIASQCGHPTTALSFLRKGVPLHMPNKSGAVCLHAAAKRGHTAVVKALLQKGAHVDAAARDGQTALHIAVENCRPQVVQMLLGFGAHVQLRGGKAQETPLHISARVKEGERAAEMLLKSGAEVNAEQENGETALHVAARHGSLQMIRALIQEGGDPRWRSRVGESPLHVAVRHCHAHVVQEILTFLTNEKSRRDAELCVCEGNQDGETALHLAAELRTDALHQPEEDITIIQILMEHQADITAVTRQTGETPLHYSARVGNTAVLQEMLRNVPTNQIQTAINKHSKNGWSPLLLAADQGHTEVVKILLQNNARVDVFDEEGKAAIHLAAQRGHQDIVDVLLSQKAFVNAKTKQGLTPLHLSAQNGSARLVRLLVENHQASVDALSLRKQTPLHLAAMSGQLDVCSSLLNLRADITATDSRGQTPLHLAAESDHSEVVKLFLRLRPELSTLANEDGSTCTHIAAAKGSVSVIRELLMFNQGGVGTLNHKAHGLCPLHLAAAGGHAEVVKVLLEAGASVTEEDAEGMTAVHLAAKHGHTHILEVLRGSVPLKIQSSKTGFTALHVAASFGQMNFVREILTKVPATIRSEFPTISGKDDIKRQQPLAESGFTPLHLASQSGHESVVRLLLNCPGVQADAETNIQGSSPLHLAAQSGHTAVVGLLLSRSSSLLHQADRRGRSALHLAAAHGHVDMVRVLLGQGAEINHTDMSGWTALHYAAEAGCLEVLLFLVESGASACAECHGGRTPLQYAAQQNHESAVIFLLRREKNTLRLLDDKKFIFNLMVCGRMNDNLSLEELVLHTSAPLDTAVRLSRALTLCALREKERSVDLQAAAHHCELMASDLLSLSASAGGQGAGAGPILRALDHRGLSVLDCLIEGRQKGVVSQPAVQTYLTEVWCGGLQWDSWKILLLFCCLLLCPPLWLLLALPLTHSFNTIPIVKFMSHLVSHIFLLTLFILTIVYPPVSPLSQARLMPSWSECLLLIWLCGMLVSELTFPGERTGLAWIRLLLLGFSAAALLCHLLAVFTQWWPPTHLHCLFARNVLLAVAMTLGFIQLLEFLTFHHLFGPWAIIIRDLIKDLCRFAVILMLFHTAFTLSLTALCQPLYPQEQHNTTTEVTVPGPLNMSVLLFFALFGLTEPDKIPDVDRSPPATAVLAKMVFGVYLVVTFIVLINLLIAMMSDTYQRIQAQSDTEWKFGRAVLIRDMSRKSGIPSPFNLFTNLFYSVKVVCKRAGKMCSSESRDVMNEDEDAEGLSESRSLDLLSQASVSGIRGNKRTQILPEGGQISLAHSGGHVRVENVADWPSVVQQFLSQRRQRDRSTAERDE

Mucolipin-3 = biological target: T1, Mucolipin-3 (Homo sapiens, UniProt Q8TDD5); experiment: Fluorescence counterscreen assay for […] agonists: dose response cell-based high-throughput screening assay to identify agonists of the transient receptor potential channel ML3 (TRPML3). [Related pubchem assays: 1424, 1448 ]; type: functional
T1 sequence (Q8TDD5 whole entry): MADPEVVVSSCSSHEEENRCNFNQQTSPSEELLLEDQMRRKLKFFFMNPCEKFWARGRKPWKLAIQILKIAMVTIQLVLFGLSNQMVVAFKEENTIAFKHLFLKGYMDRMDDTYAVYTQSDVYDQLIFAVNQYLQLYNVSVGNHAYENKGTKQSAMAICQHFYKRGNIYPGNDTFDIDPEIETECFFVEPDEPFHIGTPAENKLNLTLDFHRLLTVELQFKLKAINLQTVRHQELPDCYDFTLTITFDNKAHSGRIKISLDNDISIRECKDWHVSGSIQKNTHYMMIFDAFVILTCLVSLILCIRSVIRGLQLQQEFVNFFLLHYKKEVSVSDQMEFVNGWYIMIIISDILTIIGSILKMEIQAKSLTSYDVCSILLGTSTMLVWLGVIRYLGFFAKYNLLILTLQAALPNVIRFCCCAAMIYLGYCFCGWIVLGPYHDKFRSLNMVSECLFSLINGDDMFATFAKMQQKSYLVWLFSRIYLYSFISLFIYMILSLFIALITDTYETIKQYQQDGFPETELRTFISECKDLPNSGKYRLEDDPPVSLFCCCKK

[7] = biological target: T2, Corticotropin-releasing factor receptor 2/Corticotropin-releasing factor-binding protein (Homo sapiens, UniProt P24387+Q13324); experiment: activators of CRF receptor 2 with binding protein – uHTS hits, confirmation (AID 602473); type: functional; details: read-out: EC50_Mean
T2 sequence (Q13324 whole entry): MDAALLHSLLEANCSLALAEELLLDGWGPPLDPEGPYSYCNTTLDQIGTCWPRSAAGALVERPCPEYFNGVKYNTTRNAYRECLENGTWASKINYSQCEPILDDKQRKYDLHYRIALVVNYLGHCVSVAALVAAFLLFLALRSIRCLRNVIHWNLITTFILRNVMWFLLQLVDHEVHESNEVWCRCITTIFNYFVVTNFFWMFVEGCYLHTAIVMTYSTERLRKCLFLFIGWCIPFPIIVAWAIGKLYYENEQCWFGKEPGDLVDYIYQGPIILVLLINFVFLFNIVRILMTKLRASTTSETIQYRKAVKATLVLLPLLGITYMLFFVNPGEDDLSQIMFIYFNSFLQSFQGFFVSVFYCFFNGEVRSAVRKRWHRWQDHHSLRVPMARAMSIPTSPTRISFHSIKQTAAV
T2 sequence (P24387 whole entry): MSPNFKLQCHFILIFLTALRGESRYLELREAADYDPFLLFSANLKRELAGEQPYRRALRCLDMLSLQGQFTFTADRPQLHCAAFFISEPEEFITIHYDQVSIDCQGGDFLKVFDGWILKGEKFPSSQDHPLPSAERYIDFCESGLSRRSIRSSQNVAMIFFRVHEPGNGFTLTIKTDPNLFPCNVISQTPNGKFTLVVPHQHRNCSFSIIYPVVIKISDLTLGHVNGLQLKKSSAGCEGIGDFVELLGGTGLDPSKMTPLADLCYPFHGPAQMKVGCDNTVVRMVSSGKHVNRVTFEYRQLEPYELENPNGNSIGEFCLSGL

[8] = biological target: Voltage-dependent T-type calcium channel subunit alpha-1H (Homo sapiens, UniProt O95180); type: functional;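 also: channel activity triggered by adding a high calcium stimulation buffer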
[9] = biological target: Delta-type opioid receptor (Homo sapiens, UniProt P41143); experiment: Counterscreen for agonists of heterodimerization of the mu 1 (OPRM1) and delta 1 (OPRD1) opioid receptors: Luminescence-based cell-based high throughput dose response assay to identify agonists of OPRD1 homodimerization. [Related pubchem assays (depositor defined):AID504326, AID504355, AID504692, AID504904, AID504905]; type: functional
Delta-type opioid receptor, sequence (P41143 whole entry): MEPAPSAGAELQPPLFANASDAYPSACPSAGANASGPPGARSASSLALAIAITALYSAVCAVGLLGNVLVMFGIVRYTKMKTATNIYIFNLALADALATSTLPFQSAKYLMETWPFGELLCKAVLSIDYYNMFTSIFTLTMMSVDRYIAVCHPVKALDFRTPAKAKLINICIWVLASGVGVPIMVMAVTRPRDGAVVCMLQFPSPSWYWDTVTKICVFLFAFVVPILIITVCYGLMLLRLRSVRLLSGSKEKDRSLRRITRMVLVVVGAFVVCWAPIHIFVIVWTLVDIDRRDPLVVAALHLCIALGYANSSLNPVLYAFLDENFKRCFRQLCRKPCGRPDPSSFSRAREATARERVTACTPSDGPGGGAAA

Mu-type opioid receptor = Mu-type opioid receptor (Homo sapiens, UniProt P35372); experiment: Counterscreen for agonists of heterodimerization of the mu 1 (OPRM1) and delta 1 (OPRD1) opioid receptors: Luminescence-based cell-based high throughput dose response assay to identify agonists of OPRM1 homodimerization.; type: functional;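 also: U2OS cells expressing OPRM1 and beta-arrestin as split beta-galactosidase partners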
[10] = biological target: 5-hydroxytryptamine receptor 5A (Homo sapiens, UniProt P47898); experiment: Counterscreen for agonists of OPRM1-OPRD1 heterodimerization: luminescence-based cell-based high throughput dose response assay to identify agonists of 5-hydroxytryptamine (serotonin) 5A receptor (HTR5A). [Related pubchem assays (depositor defined):AID504326, AID504355, AID504692, AID504904, AID504905]; type: functional
5-hydroxytryptamine receptor 5A, sequence (P47898 whole entry): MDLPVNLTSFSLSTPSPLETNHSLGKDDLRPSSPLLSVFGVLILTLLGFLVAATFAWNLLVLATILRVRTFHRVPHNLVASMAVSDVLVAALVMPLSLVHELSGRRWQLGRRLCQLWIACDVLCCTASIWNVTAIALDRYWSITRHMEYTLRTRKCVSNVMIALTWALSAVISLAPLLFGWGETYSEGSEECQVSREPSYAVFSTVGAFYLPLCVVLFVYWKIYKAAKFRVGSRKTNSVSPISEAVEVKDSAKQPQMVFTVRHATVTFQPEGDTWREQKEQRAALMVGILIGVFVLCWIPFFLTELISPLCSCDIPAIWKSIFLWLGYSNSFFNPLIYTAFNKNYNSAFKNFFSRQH

[11] = biological target: COUP transcription factor 2 (Homo sapiens, UniProt P24468); experiment: Luminescence-based cell-based high throughput dose response assay to identify inhibitors of COUP-TFII (NR2F2).; type: functional;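 also: HEK293 cells transiently cotransfected with COUP-TFII expression vector and reporter; luciferase reporter luminescence driven by COUP-TFII from the pX2-168 reporter plasmid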
COUP transcription factor 2, sequence (P24468 whole entry): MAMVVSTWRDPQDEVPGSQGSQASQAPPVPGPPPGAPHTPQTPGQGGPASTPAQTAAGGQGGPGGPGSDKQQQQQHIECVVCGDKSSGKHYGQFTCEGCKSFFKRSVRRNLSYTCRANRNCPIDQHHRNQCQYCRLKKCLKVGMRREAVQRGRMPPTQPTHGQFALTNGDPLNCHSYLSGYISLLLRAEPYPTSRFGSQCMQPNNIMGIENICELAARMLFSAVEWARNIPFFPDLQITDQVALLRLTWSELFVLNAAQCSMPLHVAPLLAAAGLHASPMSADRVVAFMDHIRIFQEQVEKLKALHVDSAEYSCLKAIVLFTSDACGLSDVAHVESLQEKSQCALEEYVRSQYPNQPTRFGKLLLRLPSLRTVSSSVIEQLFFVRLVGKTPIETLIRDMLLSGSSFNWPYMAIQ

BJ [12] = experiment: BJ-TERT fibroblast viability loss – cell-based, RAS-independent, luminescence, dose response (AID 1933); type: functional; details: Homo sapiens
BJ [13] = experiment: cells; type: functional, cell-based; details: Homo sapiens
BJ [14] = experiment: BJ-TERT-LT-ST fibroblast viability loss – cell-based, RAS-independent, luminescence, dose response (AID 1935); type: functional; details: Homo sapiens;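 also: BJ fibroblasts immortalized with TERT plus LT and ST oncogenes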
[15] = DRD fibroblast viability loss – cell-based, non-viral oncogenic, luminescence, dose response (AID 1934); type: functional; details: Homo sapiens
HEK293 [16] = experiment: cells; details: Homo sapiens
HEK293 [17] = experiment: cells; details: Homo sapiens; remark: listed apart in the source
[18] = biological target: T3, E3 ubiquitin-protein ligase XIAP (Homo sapiens, UniProt P98170); experiment: Counter Screen using XIAP-Bir3 for Chemical Antagonists of Bir1/2 domains of IAP-family anti-apoptotic proteins. [Related pubchem assays (depositor defined):AID1018, AID1449, AID1514, AID1638, AID1749, AID1750, AID488957, AID488963]
T3 sequence (P98170 whole entry): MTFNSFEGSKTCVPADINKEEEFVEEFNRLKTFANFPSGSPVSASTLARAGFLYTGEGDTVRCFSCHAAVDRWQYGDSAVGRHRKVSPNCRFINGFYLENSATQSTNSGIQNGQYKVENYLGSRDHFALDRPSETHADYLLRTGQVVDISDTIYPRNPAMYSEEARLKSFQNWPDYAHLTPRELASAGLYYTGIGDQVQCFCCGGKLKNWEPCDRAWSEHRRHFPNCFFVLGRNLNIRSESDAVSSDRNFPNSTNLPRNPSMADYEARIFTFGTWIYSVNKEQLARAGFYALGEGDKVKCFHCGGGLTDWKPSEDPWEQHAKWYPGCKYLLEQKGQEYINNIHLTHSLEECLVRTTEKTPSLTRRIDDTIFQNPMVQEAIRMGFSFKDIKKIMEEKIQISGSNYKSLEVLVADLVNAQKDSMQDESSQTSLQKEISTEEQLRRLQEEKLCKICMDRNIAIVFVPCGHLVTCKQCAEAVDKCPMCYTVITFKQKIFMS

[19] = biological target: T3, E3 ubiquitin-protein ligase XIAP; experiment: small molecules displacing peptide from XIAP – biochemical, IAP family, fluorescence polarization (AID 1018); type: functional
[20] = Luminescence Cell-Based Dose Retest to Confirm Inhibitors of Cancer Stem Cells. [Related pubchem assays (depositor defined):AID2717, AID2721]; type: functional; details: Homo sapiens
[21] = viability loss of HMLE_sh_eGFP cells – cell-based, luminescence, counter-screen for HMLE_sh_ECad selective toxicity project, dose response (AID 463074); type: functional, Homo sapiens;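 also: HMLE human mammary epithelial cells expressing control shRNA against eGFP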
[22] = Trypanosoma cruzi growth suppression in host cells – NIH3T3 host cells, beta-gal luminescence, confirmation (AID 2044); type: functional, cell-based;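 also: intracellular parasites grown in NIH/3T3 mouse fibroblasts as host cells; luminescent beta-galactosidase reporter signal from transgenic T. cruzi replicating inside host cells; inhibitors lower the luminescence signal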
[23] = NIH3T3 cell viability loss – ATP luminescence, mouse fibroblasts, counter-screen, dose response (AID 2010); type: functional, cell-based;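 also: cells exposed to compound for about 90 hours before reading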
[24] = biological target: T4, Carboxy-terminal domain RNA polymerase II polypeptide A small phosphatase 1 (Homo sapiens, UniProt Q9GZU7); experiment: CTDSP1 inhibitors, concentration-response, biochemical, absorbance readout, ultra-high-throughput screen actives (AID 540297); type: functional
T4 sequence (Q9GZU7 whole entry): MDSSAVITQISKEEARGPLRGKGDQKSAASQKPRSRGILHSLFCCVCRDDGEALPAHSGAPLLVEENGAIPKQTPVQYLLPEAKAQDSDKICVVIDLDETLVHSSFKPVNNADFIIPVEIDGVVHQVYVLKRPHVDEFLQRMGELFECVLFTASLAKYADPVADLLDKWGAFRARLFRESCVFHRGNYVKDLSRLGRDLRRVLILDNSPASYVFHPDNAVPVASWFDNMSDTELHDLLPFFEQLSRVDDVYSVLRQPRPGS

[25] = biological target: NACHT, LRR and PYD domains-containing protein 3 (Homo sapiens, UniProt Q96P20); experiment: NALP3 inhibitors in yeast, dose response, luminescent (AID 488799); type: functional
INS1 = experiment: INS-1E survival protection against cytokine death – cell-based, luminescence, retest, dose response (AID 449756); type: functional; details: Rattus norvegicus;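 also: cell death triggered by IL-1 beta plus TNF-alpha plus IFN-gamma mixture; protective hits raise ATP signal compared with cytokine alone wells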

## O=C(/C=C(O)/C=C/c1ccc(O)cc1)/C=C/c1ccc(O)cc1
CHO
  IC50: 40 µM (inactive)
Beta Lactamase
  IC50: 5.13 µM (active)

## O=c1oc(-c2ccccc2)nc2sc3c(c12)CCCC3
[1]
  EC50: 38.3 µM (active)
H4
  EC50: 34.1 µM (active)
Escherichia coli
  AC50: 74.8 µM (active)

## O=[N+]([O-])c1c(C(Cl)Cl)nn(-c2ccc(Cl)cc2)c1N1CCCCC1
[2]
  EC50: > 150 µM (inactive)
[3]
  EC50: 0.436 µM (active)
[4]
  EC50: > 180 µM (inactive)
[5]
  EC50: 18.7 µM (active)

## CC(C)c1nc2c(c(=O)c3ccccc3n2C)c(=O)n1CCc1ccccc1
[6]
  CC50: 36 µM (active)
Ion channel NompC
  EC50: 3.97 µM (active)
Mucolipin-3
  EC50: 3.96 µM (active)
[7]
  EC50: 9.93 µM (active)
cells
  IC50: 13.2 µM (active)

## Cc1ccc(N2C(=O)CC(N3CCSCC3)C2=O)c(C)c1 (centres undefined)
Ion channel NompC
  EC50: > 29.9 µM (inactive)
Mucolipin-3
  EC50: > 29.9 µM (not active)

## Oc1ccc(Oc2ccc3c(C(F)(F)F)cc(C(F)(F)F)nc3n2)cc1
[8]
  EC50: 3.15 µM (active)
[9]
  EC50: > 92.5 µM (inactive)
Mu-type opioid receptor
  EC50: > 92.5 µM (inactive)
[10]
  EC50: > 92.5 µM (inactive)
[11]
  IC50: 28.2 µM (inactive)

## C=CCOc1ccc2[nH]c(NC(=O)OC)nc2c1
BJ [12]
  EC50: 1.69 µM (active)
BJ [13]
  EC50: 18.4 µM (inconclusive)
BJ [14]
  EC50: 1.46 µM (inconclusive)
[15]
  EC50: 1.01 µM (active)
HEK293 [16]
  EC50: > 59.6 µM (inactive)
HEK293 [17]
  EC50: > 59.6 µM (inactive)

## COC(=O)c1c(NC(=O)Cc2cccs2)sc(C(=O)N2CCCCC2)c1C
HEK293 [16]
  EC50: > 59.7 µM (inactive)
HEK293 [17]
  EC50: > 59.7 µM (inactive)

## CCOC(=O)N1CCC(NC(=O)C(NC(=O)C2CCC(C)CC2)C(C)CC)CC1 (centres undefined)
[18]
  IC50: > 100 µM (inactive)
[19]
  IC50: > 100 µM (not active)

## CCCCNC(=O)CCCn1c(=O)[nH]c2ccc(Br)cc2c1=O
Escherichia coli
  AC50: 53.7 µM (active)

## Clc1ccc(CSc2nnc(-c3cccnc3)n2Cc2ccco2)c(Cl)c1
[20]
  AC50: 28 µM (active)
[21]
  AC50: 31.4 µM (active)

## C/C(=N\NC(=O)c1cc(-c2cccc([N+](=O)[O-])c2)[nH]n1)c1ccccc1O
[22]
  EC50: 2.18 µM (active)
[23]
  EC50: 6.64 µM (active)
[20]
  AC50: 2.35 µM (active)
[21]
  AC50: 50.7 µM (active)
[24]
  IC50: 1.7 µM (active)

## CCOC(=O)N1C(=O)C2(CCCCC2)N(c2ccccc2Cl)C1=S
[2]
  EC50: 39.7 µM (active)
[3]
  EC50: < 0.03 µM (active)
[4]
  EC50: > 180 µM (inactive)
[25]
  IC50: 5.92 µM (active)
[5]
  EC50: 23.1 µM (active)

## Cc1nn(S(=O)(=O)c2ccc(Cl)cc2)c(C)c1Sc1ccc([N+](=O)[O-])cc1
[18]
  IC50: > 100 µM (inactive)
[19]
  IC50: > 100 µM (not active)
[22]
  EC50: 1.73 µM (active)
[23]
  EC50: > 60 µM (not active)
INS1
  AC50: 6.21 µM (active)
